Test results reported in US20120220664A1, “USE OF METFORMIN IN CANCER TREATMENT AND PREVENTION” (priority 2009, published 2012).

Key:
[1] = test system: cancer stem cells (CD44high/CD24low) and cancer cells (CD44low/CD24high) of transformed MCF-10A or MCF-7 cells; details: doxorubicin, 0.1 mM metformin, or both; FIG. 3A
[2] = test system: cancer stem cells (CD44high/CD24low) from MCF10A-ER-Src tumors; details: after 3 cycles of treatment (day 25); FIG. 4B
[3] = test system: MCF10A ER-Src xenograft tumors
[4] = test system: MCF10A ER-Src cells; assay: Colony formation assay in soft agar (FIG. 1B); assay type: cell-based, human; details: TAM-treated cells
[5] = test system: MCF10A ER-Src cells; assay: Wound healing motility / invasion assay; assay type: cell-based, human; details: 0.1 mM metformin and/or TAM; data not shown
[6] = test system: non-transformed cells (MCF10A-ER-Src); assay: Growth of non-transformed MCF10A-ER-Src cells with metformin (FIG. 1A); assay type: cell-based, human; details: 0.1 or 0.3 mM metformin, 24 hours
[7] = test system: sorted cancer stem cells and non-stem cancer cells of MCF10A ER-Src, MCF7, SKBR3 and MDA-MB-468; assay: Growth of sorted cancer stem cells and non-stem cancer cells (FIG. 3B); assay type: cell-based, human; details: 0.1 mM metformin, 0, 24, 48 hours, all four cancer cell lines
[8] = test system: MCF10A-ER-Src cells; assay: Focus formation of TAM-treated MCF10A-ER-Src cells (FIG. 1B); assay type: cell-based, human
[9] = test system: MCF10A ER-Src cells; assay: Morphological transformation of TAM-induced MCF10A ER-Src cells (phase-contrast); assay type: cell-based, human; details: 0.1 mM metformin and/or TAM for 36 hours; data not shown
[10] = test system: MCF10A-ER-Src cancer stem cells; assay: Tumor formation in nude mice by metformin-pretreated cancer stem cells (FIG. 3C); assay type: in vivo; details: cells treated with 0.1 mM metformin for 1 hour prior to injection, month after injection
[11] = test system: MCF10A-ER-Src cells; assay: Mammosphere formation (FIG. 1B); assay type: cell-based, human; details: TAM-treated cells
[12] = test system: mammospheres derived from all four breast cancer cell lines (MCF10A ER-Src, MCF7, SKBR3, MDA-MB-468); assay: Mammosphere growth, 6-day old mammospheres (FIG. 2); assay type: cell-based, human; details: 0.1 mM metformin, within 48 hours
[13] = general statement; cited from earlier work

Row | SMILES | killing of cancer stem cells versus cancer cells in the mixed transformed population [1] | cancer stem cells in tumors [2] | decrease in tumor volume ([3]; after 15 days of treatment (3 cycles every 5 days, i.p.), 4 mg/kg doxorubicin) [fold] | time until tumor growth resumed after treatment ([3]; after treatment with doxorubicin alone, FIG. 4A) [days] | rate of tumor growth after relapse ([3]; compared with absence of treatment) | tumor volume after an additional 10 days ([3]; day 35) | formation of colonies in soft agar [4] | invasive growth in wound-healing assays [5] | growth of non-transformed cells [6] | effect on sorted standard (non-stem) cancer cell population [7] | susceptibility of sorted cancer stem cells [7] | focus formation [8] | morphological transformation [9] | ability of cancer stem cells to form tumors in nude mice [10] | effect on tumors / tumor volume ([3]; after 15 days of treatment (3 cycles every 5 days, i.p.), 4 mg/kg doxorubicin, 100 μg/ml metformin, or both) | generation of mammospheres [11] | number of mammospheres [12] | crossing of the blood brain barrier [13]
1 | COc1cccc2c1C(=O)c1c(O)c3c(c(O)c1C2=O)C[C@@](O)(C(=O)CO)C[C@@H]3O[C@H]1C[C@H](N)[C@H](O)[C@H](C)O1 [doxorubicin] | kills cancer cells, but not cancer stem cells | easily detected | 2 | 20 | comparable to that observed in the initial disease | further reduction in tumor volume | – | – | – | – | – | – | – | – | – | – | – | –
2 | CN(C)C(=N)N=C(N)N [metformin] | preferentially killed cancer stem cells | – | – | – | – | – | strongly inhibited | strongly inhibited | does not affect the growth of non-transformed cells | essentially unaffected | quite susceptible | strongly inhibited | strongly inhibited | blocked the ability of these cells to form tumors | little effect | strongly inhibited | dramatic reduction in the number of mammospheres | can cross the blood brain barrier
